{
  "source": "patent US6544989B2",
  "about": "“Benzazoles: benzoxazole, benzthiazole and benzimidazole derivatives” (Syngenta Limited, priority 1998, dated 2003)",
  "key": {"Septoria nodorum": {"test_system": "Septoria nodorum", "assay": "Fungicidal test, Septoria nodorum (LEPTNO) on wheat, PRCO", "assay_type": "in vivo", "details": "METHOD 2 (unbanded)"}, "Pyricularia oryzae": {"test_system": "Pyricularia oryzae", "assay_type": "in vivo", "details": "METHOD 2 (unbanded)"}, "[1]": {"test_system": "Erysiphe graminis f.sp. tritici", "assay": "Fungicidal test, Erysiphe graminis f.sp. tritici (ERYSGT) on wheat, PRCO", "assay_type": "in vivo", "details": "1 d Prot/Foir; METHOD 2 (unbanded)"}, "Uncinula necator": {"test_system": "Uncinula necator", "assay": "Fungicidal test, Uncinula necator (UNCINE) on vines, PRCO", "assay_type": "in vivo", "details": "METHOD 2 (unbanded)"}, "[2]": {"test_system": "Phytophthora infestans lycopersici", "assay_type": "in vivo", "details": "METHOD 2 (unbanded)"}, "Venturia inaequalis": {"test_system": "Venturia inaequalis", "assay": "Fungicidal test, Venturia inaequalis (VENTIN) on apples, PRCO", "assay_type": "in vivo", "details": "METHOD 2 (unbanded)"}, "Meloidogyne incognita": {"test_system": "Meloidogyne incognita", "assay": "Nematode test, J2 infective juveniles of Meloidogyne incognita, mortality", "details": "12.5 ppm; J2 infective juveniles suspended in solution; mortality after three days"}, "Puccinia recondita": {"test_system": "Puccinia recondita", "assay": "Fungicidal test, Puccinia recondita (PUCCRT) on wheat, PRCO", "assay_type": "in vivo", "details": "METHOD 2 (unbanded)"}, "Musca domestica": {"test_system": "Musca domestica", "details": "500 ppm by weight; knockdown assessed 15 minutes after treatment", "description": "The activities of individual compounds of formula (I) were determined using a variety of pests. With the exception of nematodes, the pests were treated with a liquid composition containing 500 parts per million (ppm) by weight of a compound unless otherwise stated. Each composition was made by dissolving the compound in an acetone and ethanol (50:50 by volume) mixture and diluting the solution with water containing 0.05% by volume of a wetting agent, SYNPERONIC NP8, until the liquid composition contained the required concentration of the compound.\nThe test procedure adopted with regard to each pest, except nematodes, was essentially the same and composed supporting a number of the pests on a medium which was usually a substrate, a host plant or a foodstuff on which the pests feed, and treating either or both the medium and the pests with a composition. Pest mortality was assessed usually between three and five days after treatment Knockdown of housefly (Musca domestica) was assessed 15 minutes after treatment"}},
  "data": [
    {"smiles": "CCc1nsc(NC(=O)Cc2ccc3oc(CC(C)(C)C)nc3c2)c1Cl", "note": "[15(A8)]", "values": [
      {"measurement": "LEPTNO 1 d Prot/Foir PRCO", "setting": "Septoria nodorum", "result": "−2"},
      {"measurement": "PYRIOR 1 d Prot/Foir PRCO", "setting": "Pyricularia oryzae", "result": 81},
      {"measurement": "ERYSGT 1 d Prot/Foir PRCO", "setting": "[1]", "result": 80},
      {"measurement": "UNCINE 1 d Prot/Foir PRCO", "setting": "Uncinula necator", "result": 100},
      {"measurement": "PHYTIN 1 d Prot/Foir PRCO", "setting": "[2]", "result": 99},
      {"measurement": "VENTIN 1 d Prot/Foir PRCO", "setting": "Venturia inaequalis", "result": 24},
      {"measurement": "MELGIN = Meloidogyne incognita, grading of mortality (score)", "setting": "Meloidogyne incognita", "result": "0 (0 indicates less than 40% mortality)"}
    ]},
    {"smiles": "Cc1nsc(NC(=O)Cc2ccc3nc(CC(C)(C)C)[nH]c3c2)c1Cl", "note": "[15(A43)]", "values": [
      {"measurement": "LEPTNO 1 d Prot/Foir PRCO", "setting": "Septoria nodorum", "result": 0},
      {"measurement": "PYRIOR 1 d Prot/Foir PRCO", "setting": "Pyricularia oryzae", "result": 63},
      {"measurement": "UNCINE 1 d Prot/Foir PRCO", "setting": "Uncinula necator", "result": 63},
      {"measurement": "PHYTIN 1 d Prot/Foir PRCO", "setting": "[2]", "result": 80}
    ]},
    {"smiles": "Cc1nsc(N(CC(F)(F)F)C(=O)Cc2ccc3oc(CC(C)(C)C)nc3c2)c1Cl", "note": "[15(H3)]", "values": [
      {"measurement": "PUCCRT 1 d Prot/Foir PRCO", "setting": "Puccinia recondita", "result": 29},
      {"measurement": "LEPTNO 1 d Prot/Foir PRCO", "setting": "Septoria nodorum", "result": 2},
      {"measurement": "PYRIOR 1 d Prot/Foir PRCO", "setting": "Pyricularia oryzae", "result": 46},
      {"measurement": "ERYSGT 1 d Prot/Foir PRCO", "setting": "[1]", "result": 16},
      {"measurement": "UNCINE 1 d Prot/Foir PRCO", "setting": "Uncinula necator", "result": 63},
      {"measurement": "VENTIN 1 d Prot/Foir PRCO", "setting": "Venturia inaequalis", "result": 0},
      {"measurement": "MELGIN = Meloidogyne incognita, grading of mortality (score)", "setting": "Meloidogyne incognita", "result": "0 (0 indicates less than 40% mortality)"}
    ]},
    {"smiles": "Cc1nsc(NC(=O)Cc2ccc3oc(C4CC4)nc3c2)c1Cl", "note": "[21(A3)]", "values": [
      {"measurement": "PUCCRT 1 d Prot/Foir PRCO", "setting": "Puccinia recondita", "result": 100},
      {"measurement": "LEPTNO 1 d Prot/Foir PRCO", "setting": "Septoria nodorum", "result": 14},
      {"measurement": "PYRIOR 1 d Prot/Foir PRCO", "setting": "Pyricularia oryzae", "result": 92},
      {"measurement": "ERYSGT 1 d Prot/Foir PRCO", "setting": "[1]", "result": 35},
      {"measurement": "UNCINE 1 d Prot/Foir PRCO", "setting": "Uncinula necator", "result": 44},
      {"measurement": "VENTIN 1 d Prot/Foir PRCO", "setting": "Venturia inaequalis", "result": 50},
      {"measurement": "MELGIN = Meloidogyne incognita, grading of mortality (score)", "setting": "Meloidogyne incognita", "result": "0 (0 indicates less than 40% mortality)"}
    ]},
    {"smiles": "Cc1nsc(NC(=O)Cc2ccc3oc(C4CCCCC4)nc3c2)c1Cl", "note": "[35((A3)]", "values": [
      {"measurement": "PYRIOR 1 d Prot/Foir PRCO", "setting": "Pyricularia oryzae", "result": 98},
      {"measurement": "UNCINE 1 d Prot/Foir PRCO", "setting": "Uncinula necator", "result": 100},
      {"measurement": "VENTIN 1 d Prot/Foir PRCO", "setting": "Venturia inaequalis", "result": 70}
    ]},
    {"smiles": "Cc1nsc(NC(=O)Cc2ccc3oc(C(F)(F)F)nc3c2)c1Cl", "note": "[75(A3)]", "values": [
      {"measurement": "PUCCRT 1 d Prot/Foir PRCO", "setting": "Puccinia recondita", "result": 94},
      {"measurement": "LEPTNO 1 d Prot/Foir PRCO", "setting": "Septoria nodorum", "result": 27},
      {"measurement": "PYRIOR 1 d Prot/Foir PRCO", "setting": "Pyricularia oryzae", "result": 78},
      {"measurement": "ERYSGT 1 d Prot/Foir PRCO", "setting": "[1]", "result": 90},
      {"measurement": "UNCINE 1 d Prot/Foir PRCO", "setting": "Uncinula necator", "result": 53},
      {"measurement": "VENTIN 1 d Prot/Foir PRCO", "setting": "Venturia inaequalis", "result": 15},
      {"measurement": "MELGIN = Meloidogyne incognita, grading of mortality (score)", "setting": "Meloidogyne incognita", "result": "0 (0 indicates less than 40% mortality)"}
    ]},
    {"smiles": "Cc1nsc(NC(=O)Cc2ccc3oc(C(F)(F)C(F)F)nc3c2)c1Cl", "note": "[79(A3)]", "values": [
      {"measurement": "PUCCRT 1 d Prot/Foir PRCO", "setting": "Puccinia recondita", "result": 100},
      {"measurement": "LEPTNO 1 d Prot/Foir PRCO", "setting": "Septoria nodorum", "result": 14},
      {"measurement": "PYRIOR 1 d Prot/Foir PRCO", "setting": "Pyricularia oryzae", "result": 98},
      {"measurement": "ERYSGT 1 d Prot/Foir PRCO", "setting": "[1]", "result": 100},
      {"measurement": "UNCINE 1 d Prot/Foir PRCO", "setting": "Uncinula necator", "result": 90},
      {"measurement": "VENTIN 1 d Prot/Foir PRCO", "setting": "Venturia inaequalis", "result": 88},
      {"measurement": "MELGIN = Meloidogyne incognita, grading of mortality (score)", "setting": "Meloidogyne incognita", "result": "0 (0 indicates less than 40% mortality)"}
    ]},
    {"smiles": "COCc1nc2cc(CC(=O)Nc3snc(C)c3Cl)ccc2o1", "note": "[130(A3)]", "values": [
      {"measurement": "PUCCRT 1 d Prot/Foir PRCO", "setting": "Puccinia recondita", "result": 100},
      {"measurement": "LEPTNO 1 d Prot/Foir PRCO", "setting": "Septoria nodorum", "result": 21},
      {"measurement": "PYRIOR 1 d Prot/Foir PRCO", "setting": "Pyricularia oryzae", "result": 93},
      {"measurement": "ERYSGT 1 d Prot/Foir PRCO", "setting": "[1]", "result": 87},
      {"measurement": "UNCINE 1 d Prot/Foir PRCO", "setting": "Uncinula necator", "result": 86},
      {"measurement": "VENTIN 1 d Prot/Foir PRCO", "setting": "Venturia inaequalis", "result": 60},
      {"measurement": "MELGIN = Meloidogyne incognita, grading of mortality (score)", "setting": "Meloidogyne incognita", "result": "0 (0 indicates less than 40% mortality)"}
    ]},
    {"smiles": "CCN(C)c1nc2cc(CC(=O)Nc3snc(C)c3Cl)ccc2o1", "note": "[180(A3)]", "values": [
      {"measurement": "PUCCRT 1 d Prot/Foir PRCO", "setting": "Puccinia recondita", "result": 69},
      {"measurement": "LEPTNO 1 d Prot/Foir PRCO", "setting": "Septoria nodorum", "result": 14},
      {"measurement": "MUSCDO AC = Musca domestica (knockdown), score", "setting": "Musca domestica", "result": "0 (0 indicates less than 40% mortality)"},
      {"measurement": "PYRIOR 1 d Prot/Foir PRCO", "setting": "Pyricularia oryzae", "result": 42},
      {"measurement": "ERYSGT 1 d Prot/Foir PRCO", "setting": "[1]", "result": 29},
      {"measurement": "UNCINE 1 d Prot/Foir PRCO", "setting": "Uncinula necator", "result": 42},
      {"measurement": "VENTIN 1 d Prot/Foir PRCO", "setting": "Venturia inaequalis", "result": 0},
      {"measurement": "MELGIN = Meloidogyne incognita, grading of mortality (score)", "setting": "Meloidogyne incognita", "result": "0 (0 indicates less than 40% mortality)"}
    ]},
    {"smiles": "Cc1nsc(NC(=O)Cc2ccc3oc(Cc4c(F)c(F)c(F)c(F)c4F)nc3c2)c1Cl", "note": "[239(A3)]", "values": [
      {"measurement": "PUCCRT 1 d Prot/Foir PRCO", "setting": "Puccinia recondita", "result": 3},
      {"measurement": "PYRIOR 1 d Prot/Foir PRCO", "setting": "Pyricularia oryzae", "result": 11},
      {"measurement": "ERYSGT 1 d Prot/Foir PRCO", "setting": "[1]", "result": 23},
      {"measurement": "UNCINE 1 d Prot/Foir PRCO", "setting": "Uncinula necator", "result": 51},
      {"measurement": "VENTIN 1 d Prot/Foir PRCO", "setting": "Venturia inaequalis", "result": 5},
      {"measurement": "MELGIN = Meloidogyne incognita, grading of mortality (score)", "setting": "Meloidogyne incognita", "result": "0 (0 indicates less than 40% mortality)"}
    ]},
    {"smiles": "Cc1nsc(NC(=O)Cc2ccc3oc(-c4c(Cl)cc(C(F)(F)F)cc4Cl)nc3c2)c1Cl", "note": "[244(A3)]", "values": [
      {"measurement": "PUCCRT 1 d Prot/Foir PRCO", "setting": "Puccinia recondita", "result": 84},
      {"measurement": "LEPTNO 1 d Prot/Foir PRCO", "setting": "Septoria nodorum", "result": "−2"},
      {"measurement": "PYRIOR 1 d Prot/Foir PRCO", "setting": "Pyricularia oryzae", "result": "−2"},
      {"measurement": "ERYSGT 1 d Prot/Foir PRCO", "setting": "[1]", "result": 3},
      {"measurement": "VENTIN 1 d Prot/Foir PRCO", "setting": "Venturia inaequalis", "result": 45},
      {"measurement": "MELGIN = Meloidogyne incognita, grading of mortality (score)", "setting": "Meloidogyne incognita", "result": "0 (0 indicates less than 40% mortality)"}
    ]},
    {"smiles": "Cc1nsc(NC(=O)Cc2ccc3oc(-c4c(F)c(F)c(F)c(F)c4F)nc3c2)c1Cl", "note": "[287(A3)]", "values": [
      {"measurement": "PUCCRT 1 d Prot/Foir PRCO", "setting": "Puccinia recondita", "result": 94},
      {"measurement": "LEPTNO 1 d Prot/Foir PRCO", "setting": "Septoria nodorum", "result": "−2"},
      {"measurement": "PYRIOR 1 d Prot/Foir PRCO", "setting": "Pyricularia oryzae", "result": 19},
      {"measurement": "ERYSGT 1 d Prot/Foir PRCO", "setting": "[1]", "result": 34},
      {"measurement": "UNCINE 1 d Prot/Foir PRCO", "setting": "Uncinula necator", "result": 20},
      {"measurement": "PHYTIN 1 d Prot/Foir PRCO", "setting": "[2]", "result": 3},
      {"measurement": "VENTIN 1 d Prot/Foir PRCO", "setting": "Venturia inaequalis", "result": 8},
      {"measurement": "MELGIN = Meloidogyne incognita, grading of mortality (score)", "setting": "Meloidogyne incognita", "result": "0 (0 indicates less than 40% mortality)"}
    ]},
    {"smiles": "Cc1nsc(NC(=O)Cc2ccc3oc(-c4ccncc4)nc3c2)c1Cl", "note": "[339((A3)]", "values": [
      {"measurement": "PYRIOR 1 d Prot/Foir PRCO", "setting": "Pyricularia oryzae", "result": 33},
      {"measurement": "UNCINE 1 d Prot/Foir PRCO", "setting": "Uncinula necator", "result": 26},
      {"measurement": "VENTIN 1 d Prot/Foir PRCO", "setting": "Venturia inaequalis", "result": 8}
    ]}
  ]
}
